Test results published in patent publication US20250152585A1, “PHARMACEUTICAL COMPOUND” (Duke Street Bio Limited, priority 2022, published 2025).
pIC50, pKd: −log10 of the molar value. Like-named read-outs stand apart in the source and are kept apart here.

Columns and labels:
[1] = molecular target: T1, full length N-terminally FLAG-tagged PARP1 (Homo sapiens, UniProt P09874); assay: PARP1 biochemical DELFIA assay (auto-PARylation); design: recombinant full length human N-terminally FLAG-tagged PARP1
T1 sequence (P09874 whole entry): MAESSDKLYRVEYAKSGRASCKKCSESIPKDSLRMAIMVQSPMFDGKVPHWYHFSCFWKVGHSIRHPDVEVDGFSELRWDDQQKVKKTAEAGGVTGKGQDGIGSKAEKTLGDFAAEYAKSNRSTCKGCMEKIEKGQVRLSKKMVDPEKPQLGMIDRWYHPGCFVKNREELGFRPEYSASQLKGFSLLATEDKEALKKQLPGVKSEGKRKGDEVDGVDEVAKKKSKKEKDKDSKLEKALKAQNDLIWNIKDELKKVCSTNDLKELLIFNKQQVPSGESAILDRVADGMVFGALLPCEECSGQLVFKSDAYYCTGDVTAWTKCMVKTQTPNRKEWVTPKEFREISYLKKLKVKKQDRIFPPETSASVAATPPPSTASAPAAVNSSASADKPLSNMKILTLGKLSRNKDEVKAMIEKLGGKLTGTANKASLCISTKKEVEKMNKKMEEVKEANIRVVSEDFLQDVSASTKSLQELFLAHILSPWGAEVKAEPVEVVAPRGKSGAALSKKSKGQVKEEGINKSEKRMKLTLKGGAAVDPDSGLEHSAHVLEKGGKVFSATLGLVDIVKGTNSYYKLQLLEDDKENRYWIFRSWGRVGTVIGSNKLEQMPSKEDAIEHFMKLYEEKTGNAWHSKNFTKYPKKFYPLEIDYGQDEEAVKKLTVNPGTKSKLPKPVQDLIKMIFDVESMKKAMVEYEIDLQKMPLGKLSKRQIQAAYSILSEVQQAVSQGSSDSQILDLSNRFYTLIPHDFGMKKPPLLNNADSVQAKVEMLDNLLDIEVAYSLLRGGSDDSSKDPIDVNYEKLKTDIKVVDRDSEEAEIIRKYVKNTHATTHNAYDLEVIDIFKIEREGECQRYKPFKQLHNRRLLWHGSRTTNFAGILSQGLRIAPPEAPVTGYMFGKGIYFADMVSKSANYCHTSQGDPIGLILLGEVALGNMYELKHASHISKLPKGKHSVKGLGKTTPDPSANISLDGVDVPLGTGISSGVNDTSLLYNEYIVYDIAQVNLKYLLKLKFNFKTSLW

[2] = molecular target: T1, full length N-terminally FLAG-tagged PARP1; assay: PARP1 probe displacement HTRF assay; settings: for Selectivity: PARP1 over PARP2, ratio Kd (PARP2)/Kd (PARP1); for pKd: binned Kd
[3] = molecular target: T2, N-terminally FLAG-tagged PARP2 (amino acids 1-583) (Homo sapiens, UniProt Q9UGN5); assay: PARP2 probe displacement HTRF assay; type: binding; settings: binned Kd
T2 construct: N-terminally FLAG-tagged PARP2 (amino acids 1-583)
T2 sequence (Q9UGN5 whole entry, the tested form may be a part): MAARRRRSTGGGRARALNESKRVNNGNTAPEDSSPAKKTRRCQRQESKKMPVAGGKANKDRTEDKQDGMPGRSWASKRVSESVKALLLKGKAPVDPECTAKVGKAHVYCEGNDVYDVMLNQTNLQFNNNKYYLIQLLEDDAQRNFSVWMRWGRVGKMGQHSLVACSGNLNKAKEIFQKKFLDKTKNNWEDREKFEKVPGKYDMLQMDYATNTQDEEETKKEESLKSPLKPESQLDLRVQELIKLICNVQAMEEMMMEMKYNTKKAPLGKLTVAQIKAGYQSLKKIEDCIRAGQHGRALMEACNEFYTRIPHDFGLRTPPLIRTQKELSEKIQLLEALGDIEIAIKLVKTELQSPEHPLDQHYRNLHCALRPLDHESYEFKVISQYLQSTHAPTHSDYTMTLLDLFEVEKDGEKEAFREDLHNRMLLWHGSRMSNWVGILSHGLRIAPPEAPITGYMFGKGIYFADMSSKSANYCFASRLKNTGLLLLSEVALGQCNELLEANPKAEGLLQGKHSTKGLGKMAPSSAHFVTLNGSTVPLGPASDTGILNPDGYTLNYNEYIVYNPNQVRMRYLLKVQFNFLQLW
Protocol: Data analysis was performed identical as for PARP1.

[4] = binned IC50, biochemical auto-PARylation assay
[5] = read-out: PARP1 HTRF, probe displacement HTRF
[6] = binned IC50, PARP1 biochemical DELFIA assay
[7] = PARP1 HTRF, PARP1 probe displacement HTRF
[8] = PARP1 HTRF, probe displacement HTRF

| SMILES | pIC50 [1, 4] | pKd [2, 5] | pKd ([3]; probe displacement HTRF) | pIC50 [1, 6] | pKd [2, 7] | pKd ([3]; PARP2 probe displacement HTRF) | pKd [2, 8] | Selectivity ([2]; probe displacement HTRF) |
| --- | --- | --- | --- | --- | --- | --- | --- | --- |
| CCc1ccc(C2CCN(C3CCN(c4ccc(C(=O)NC5CC5)nc4C#N)CC3)C2)[nH]c1=O (single isomer, unassigned) [Compound 409a] | > 8.00 | > 8.00 | 5.00 to 6.00 | – | – | – | – | +++ (+++ indicate a value of at least 100) |
| CCc1ccc(C2CCN(C3CCN(c4ccc(C(=O)NC5CC5)nc4C#N)CC3)C2)[nH]c1=O (single isomer, unassigned) [Compound 409b] | > 8.00 | > 8.00 | 6.00 to 7.00 | – | – | – | – | +++ (+++ indicate a value of at least 100) |
| N#Cc1nc(C(=O)NC2CC2)ccc1N1CCC(N2CCC(c3cc4cccc(F)c4c(=O)[nH]3)C2)CC1 (single isomer, unassigned) [Compound 410a] | > 8.00 | > 8.00 | 6.00 to 7.00 | – | – | – | – | +++ (+++ indicate a value of at least 100) |
| N#Cc1nc(C(=O)NC2CC2)ccc1N1CCC(N2CCC(c3cc4cccc(F)c4c(=O)[nH]3)C2)CC1 (single isomer, unassigned) [Compound 410b] | > 8.00 | > 8.00 | 6.00 to 7.00 | – | – | – | – | +++ (+++ indicate a value of at least 100) |
| CNC(=O)c1ccc(OCCCN2CCC(c3nc4ccccc4c(=O)[nH]3)CC2)cn1 [Compound 2, N-methyl-5-(3-(4-(4-oxo-3,4-dihydroquinazolin-2-yl)piperidin-1-yl)propoxy)picolinamide] | – | – | – | > 8.00 | > 8.00 | 5.00 to 6.00 | – | +++ (+++ indicate a value of at least 100) |
| CNC(=O)c1ccc(N2CCC(C(=O)N3CCC(c4nc5ccccc5c(=O)[nH]4)CC3)CC2)cn1 [Compound 36] | – | – | – | > 8.00 | > 8.00 | < 5.00 | – | +++ (+++ indicate a value of at least 100) |
| CNC(=O)c1ccc(N2CCC(CN3CCC(c4nc5c(Cl)cccc5c(=O)[nH]4)CC3)CC2)cn1 [Compound 40, 5-(4-((4-(8-chloro-4-oxo-3,4-dihydroquinazolin-2-yl)piperidin-1-yl)methyl)piperidin-1-yl)-N-methylpicolinamide] | – | – | – | > 8.00 | > 8.00 | 6.00 to 7.00 | – | ++ (++ indicates a value of 50 to less than 100) |
| CCc1cnc(C2CCN(C(=O)C3CCN(c4ccc(C(=O)NC)nc4)CC3)CC2)[nH]c1=O [Compound 41] | – | – | – | 6.00 to 7.00 | 6.00 to 7.00 | < 5.00 | – | + (+ indicates a value of 10 to less than 50) |
| CNC(=O)c1ccc(N2CC(CN3CCC(c4nc5ccccc5c(=O)[nH]4)CC3)C2)cn1 [Compound 45] | – | – | – | > 8.00 | > 8.00 | 6.00 to 7.00 | – | +++ (+++ indicate a value of at least 100) |
| CCc1ccc(C2CCN(CC3CCN(c4ccc(C(=O)NC)nc4)CC3)CC2)[nH]c1=O [Compound 47] | – | – | – | 6.00 to 7.00 | 6.00 to 7.00 | < 5.00 | – | − (− indicates a value of less than 10) |
| CNC(=O)c1ccc(N2CCC(C(=O)N3CCC(c4ncc(C(F)(F)F)c(=O)[nH]4)CC3)CC2)cn1 [Compound 59] | – | – | – | 5.00 to 6.00 | 6.00 to 7.00 | < 5.00 | – | − (− indicates a value of less than 10) |
| CNC(=O)c1ccc(OCCN2CCC(c3nc4ccccc4c(=O)[nH]3)CC2)cn1 [Compound 63] | – | – | – | > 8.00 | 7.00 to 8.00 | 5.00 to 6.00 | – | ++ (++ indicates a value of 50 to less than 100) |
| CNC(=O)c1ccc(N2CCC(N3CC4CC(c5nc6ccccc6c(=O)[nH]5)(C4)C3)CC2)cn1 [Compound 168] | – | – | – | > 8.00 | > 8.00 | < 5.00 | – | +++ (+++ indicate a value of at least 100) |
| CNC(=O)c1ccc(N2CCC(N3CC4(c5nc6ccncc6c(=O)[nH]5)CC3C4)CC2)c(F)n1 [Compound 305] | > 8.00 | – | < 5.00 | – | – | – | > 8.00 | +++ (+++ indicate a value of at least 100) |

The next lines start with results.

| pIC50 [1, 4] | pKd [2, 5] | pKd ([3]; probe displacement HTRF) | pIC50 [1, 6] | pKd [2, 7] | pKd ([3]; PARP2 probe displacement HTRF) | pKd [2, 8] | SMILES | Selectivity ([2]; probe displacement HTRF) |
| --- | --- | --- | --- | --- | --- | --- | --- | --- |
| – | – | – | > 8.00 | > 8.00 | < 5.00 | – | CNC(=O)c1ccc(N2CCC(CN3CCC(c4nc5ccccc5c(=O)[nH]4)CC3)CC2)cn1 [Compound 8, N-methyl-5-(4-((4-(4-oxo-3,4-dihydroquinazolin-2-yl)piperidin-1-yl)methyl)piperidin-1-yl)picolinamide] | +++ (+++ indicate a value of at least 100) |
| – | – | – | 7.00 to 8.00 | 7.00 to 8.00 | < 5.00 | – | CNC(=O)c1ccc(N2CCC(n3cc(-c4nc5ccccc5c(=O)[nH]4)cn3)CC2)cn1 [Compound 17, N-methyl-5-(4-(4-(4-oxo-3,4-dihydroquinazolin-2-yl)-1H-pyrazol-1-yl)piperidin-1-yl)picolinamide] | +++ (+++ indicate a value of at least 100) |
| – | – | – | 7.00 to 8.00 | 7.00 to 8.00 | < 5.00 | – | CCc1cnc(-c2cnn(C3CCN(c4ccc(C(=O)NC)nc4)CC3)c2)[nH]c1=O [Compound 20] | ++ (++ indicates a value of 50 to less than 100) |
| – | – | – | 7.00 to 8.00 | 7.00 to 8.00 | 5.00 to 6.00 | – | CNC(=O)c1ccc(N2CCC(N3CC(c4nc5ccccc5c(=O)[nH]4)C3)CC2)cn1 [Compound 27] | + (+ indicates a value of 10 to less than 50) |
| – | – | – | > 8.00 | > 8.00 | 6.00 to 7.00 | – | CNC(=O)c1ccc(N2CC(N3CCC(Cc4nc5ccccc5c(=O)[nH]4)CC3)C2)cn1 [Compound 48] | +++ (+++ indicate a value of at least 100) |
| – | – | – | > 8.00 | > 8.00 | 6.00 to 7.00 | – | CNC(=O)c1ccc(N2CCC(N3CCC(Cc4nc5ccccc5c(=O)[nH]4)CC3)CC2)cn1 [Compound 54, N-methyl-5-(4-{4-[(4-oxo-3H-quinazolin-2-yl)methyl]piperidin-1-yl}piperidin-1-yl)pyridine-2-carboxamide] | +++ (+++ indicate a value of at least 100) |
| – | – | – | 7.00 to 8.00 | 7.00 to 8.00 | 5.00 to 6.00 | – | CNC(=O)c1ccc(N2CCC(CN3CC4(c5nc6ccccc6c(=O)[nH]5)CC3C4)CC2)cn1 [Compound 193] | +++ (+++ indicate a value of at least 100) |
| > 8.00 | – | 6.00 to 7.00 | – | – | – | > 8.00 | CNC(=O)c1ccc(N2CCC(N3CC4(c5nc6cccc(F)c6c(=O)[nH]5)CC3C4)CC2)cn1 [Compound 227] | +++ (+++ indicate a value of at least 100) |
| > 8.00 | – | 6.00 to 7.00 | – | – | – | > 8.00 | CNC(=O)c1ccc(N2CCC(N3CC4(c5nc6ccc(F)cc6c(=O)[nH]5)CC3C4)CC2)cn1 [Compound 238] | +++ (+++ indicate a value of at least 100) |
| > 8.00 | – | < 5.00 | – | – | – | > 8.00 | CNC(=O)c1ccc(N2CCC(N3CC4(c5nc6ccccc6c(=O)[nH]5)CC3(CO)C4)CC2)cn1 [Compound 284] | +++ (+++ indicate a value of at least 100) |
| > 8.00 | – | < 5.00 | – | – | – | > 8.00 | CNC(=O)c1ccc(N2CCC(N3CC4(c5nc6ncccc6c(=O)[nH]5)CC3C4)CC2)c(F)n1 [Compound 303] | +++ (+++ indicate a value of at least 100) |
| > 8.00 | – | < 5.00 | – | – | – | 7.00 to 8.00 | CNC(=O)c1ccc(N2CCC(N3CC4(c5nc6ccncc6c(=O)[nH]5)CC3C4)CC2)cn1 [Compound 304] | +++ (+++ indicate a value of at least 100) |
| 7.00 to 8.00 | – | < 5.00 | – | – | – | > 8.00 | CCc1cnc(C23CC(C2)N(C2CCN(c4ccc(C(=O)NC)nc4C(F)(F)F)CC2)C3)[nH]c1=O [Compound 310] | +++ (+++ indicate a value of at least 100) |
| > 8.00 | – | 5.00 to 6.00 | – | – | – | > 8.00 | CNC(=O)c1ccc(N2CCC(N3CC4(c5nc6ncccc6c(=O)[nH]5)CC3C4)CC2)cn1 [Compound 311] | +++ (+++ indicate a value of at least 100) |
